Measured values taken from patent publication US20110105626A1, “USE OF CYCLOHEXANEHEXOL DERIVATIVES FOR THE TREATMENT OF POLYGLUTAMINE DISEASES” (priority 2007, published 2011).
“Also recorded” adds a separate entry of the source.

How the values were obtained:
Assay type in all cases: cell-based
[1] = target: T1, HttQ103P-EGFP (Homo sapiens, UniProt P42858); experiment: Aggregation of HttQ103P-EGFP in inducible PC-12 cells (visual counts by fluorescent microscopy)
T1 construct: expressed in transfected cells; host or cells: PC-12 cells, stably transfected, pIND construct induced with 5 µM ponasterone
Procedure: (§1) Inducible PC-12 cells. PC-12 cells stably transfected with pIND constructs containing HttQ103P-EGFP. The cells upon stimulation with 5 μM ponasterone for 48 hrs express poly-Q protein with a EGFP carboxy-terminal epitope tag (Apostol, B. et al., PNAS 100, 5950-5955, 2003). Chemical Compound screen in PC-12 cells. Cells were plated in 6 well plates and grown overnight, then treated with 5 μM ponasterone for 48 hrs in the presence and absence of cystamine bitartrate or scyllo-inositol. Both were dissolved in water, and added directly to cultures at a final concentration of 1-50 μM and aggregation calculated. Visual counts of aggregates and EGFP-positive cells were performed using fluorescent microscopy. At least 300 cells were counted from 5-6 fields in three wells in each of three independent experiments. Aggregation is expressed as the percentage of cells with aggregates versus total number of EGFP-positive cells. Chemical compound was assessed for cellular toxicity by evaluating cell morphology, trypan blue exclusion and cell viability. Protein Expression. Cells were plated in 6 well plates and grown overnight, then treated with 5 μM ponasterone for 48 hrs in the presence and absence of cystamine bitartrate or scyllo-inositol. Cells were lysed in hypotonic solution containing 20 mM HEPES ph 7.5, 5 mM NaCl, 10 mM NaF, 2 mM EDTA, 1% Nonidet P-40, 1 mM sodium, orthovanadate, and protease inhibitors. Protein concentration was determined using the Bradford assay and 100 μg of protein was used for western blotting. Primary antibody to poly-glutamine was used to detect HttQ103, while GAPDH was used as an internal house-keeping standard. Westerns were scanned and densitometry was used to quantify PolyQ expression.
A hallmark of polyglutamine diseases is the accumulation of intracellular aggregates in the cytosol and nucleus of neurons. Therefore, the inducible PC-12 cell lines were utilized to address the question of inhibition of HttQ103P-EFGP aggregation using scyllo-inositol and a previously identified aggregation inhibitor, cystamine bitartrate. Aggregates are readily distinguished from soluble Htt, by intense small aggregate formation versus diffuse cellular staining pattern of soluble Htt (FIG. 1). Simultaneously with induction of HttQ103P-EFGP expression, scyllo-inositol was added to the cells in a final concentration range from 0-100 μM, with 50 μM cystamine bitartrate as a positive control. Cells were photographed using fluorescence microscopy and total cells expressing EFGP counted, and cells containing aggregates. Efficacy of treatment was determined by a reduction in the percentage of cells containing EGFP aggregates (FIG. 1, 2).

[2] = target: T2, Htt103Q-EGFP (Homo sapiens, UniProt P42858); experiment: Western blot of poly-Q protein expression in inducible PC-12 cells, normalized to GAPDH; settings: for Htt103Q-EGFP protein expression level (western blot): cystamine bitartrate treatment
T2 construct: expressed in transfected cells; host or cells: PC-12 cells, stably transfected, pIND construct induced with 5 µM ponasterone
Procedure: as §1
In order to examine changes in Htt103Q-EGFP protein concentration as a function of scyllo-inositol treatment, western blots were used (FIG. 3, 4). Cells were treated as above and then harvested for western blot analyses using a poly-glutamine specific antibody, and normalized to the housekeeping protein, GAPDH (FIG. 3). Blots were scanned and densitometry of each lane performed, to normalize for variations in protein loading pixels were normalized to those of GAPDH.

[3] = system: PC-12 cells
Procedure: as §1, with “Visual counts of aggregates and EGFP-positive cells were performed using fluorescent microscopy.” left out, “Protein Expression. Cells were plated in 6 well plates and grown overnight, then treated with 5 μM ponasterone for 48 hrs in the presence and absence of cystamine bitartrate or scyllo-inositol. Cells were lysed in hypotonic solution containing 20 mM HEPES ph 7.5, 5 mM NaCl, 10 mM NaF, 2 mM EDTA, 1% Nonidet P-40, 1 mM sodium, orthovanadate, and protease inhibitors.” left out, “Primary antibody to poly-glutamine was used to detect HttQ103, while GAPDH was used as an internal house-keeping standard.” left out
A hallmark of polyglutamine diseases is the accumulation of intracellular aggregates in the cytosol and nucleus of neurons. […] Cells were photographed using fluorescence microscopy and total cells expressing EFGP counted, and cells containing aggregates. […]

T2 sequence (P42858 with tags, fused parts or gaps limits assumed): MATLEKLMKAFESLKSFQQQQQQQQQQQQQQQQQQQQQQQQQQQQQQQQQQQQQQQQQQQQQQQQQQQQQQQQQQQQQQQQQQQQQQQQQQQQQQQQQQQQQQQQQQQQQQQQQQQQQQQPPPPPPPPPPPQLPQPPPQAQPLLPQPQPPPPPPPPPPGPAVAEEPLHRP
T1 sequence (P42858 with tags, fused parts or gaps limits assumed): as above

Htt103Q-EGFP protein expression level (western blot) ([2]; listed as Cystamine bitratrate)	Concentrations at which aggregation of poly-Q repeat Htt is decreased ([1]; inducible PC-12 cells) [µM]	Lowest concentration with significant decrease in the formation of aggregates ([1]; inducible PC-12 cells, FIG. 2) [µM]	Concentrations at which poly-Q (Htt) protein is decreased / mutant Htt degradation is enhanced ([2]; inducible PC-12 cells, western blot) [µM]	poly-Q protein expression ([2]; scyllo-inositol up to 10 μM concentration)	Structure (SMILES)	Aggregation (percentage of cells with aggregates versus total EGFP-positive cells) ([1]; 50 μM cystamine bitartrate as positive control, added simultaneously with induction)	Htt103Q-EGFP protein expression level (western blot) [2]	Aggregation (percentage of cells with aggregates versus total EGFP-positive cells) ([1]; scyllo-inositol 0-100 μM added simultaneously with induction, 5 μM ponasterone 48 hrs)	Aggregation (percentage of cells with aggregates versus total EGFP-positive cells) ([1]; scyllo-inositol 0-100 μM added simultaneously with induction, 5 μM ponasterone 48 hrs, listed as Scyllo-inositol)	Cell viability, trypan blue exclusion assay [3]	Morphological examination of cells for changes associated with toxicity [3]	Htt103Q-EGFP protein concentration (western blot, densitometry) ([2]; scyllo-inositol concentration series, normalized to GAPDH)
did not alter poly-Q protein expression	–	–	–	–	NCCSSCCN.O=C(O)C(O)C(O)C(=O)O (stereo not drawn) [cystamine bitartrate, reference compound]	inhibits aggregate formation; also recorded: aggregated poly-Q is decreased; also recorded: decreased aggregation of poly-Q	no effect on Htt103 cellular protein concentration; also recorded: did not change protein expression levels	–	–	–	–	–
–	1 to 100	1	25 to 100	did not alter poly-Q protein expression	O[C@H]1[C@H](O)[C@@H](O)[C@H](O)[C@@H](O)[C@@H]1O [scyllo-inositol]	–	–	concentration dependent effect of decreased aggregation	concentration dependent decrease in the formation of aggregates	no effect on cell viability	did not detect changes associated with toxicity	concentration dependant decrease in Htt protein; also recorded: decreased the protein concentration
